Measured values from PubChem BioAssay AID2060513 (Molecular Pharmacology Branch, DTP, NCI, 2025).
Values joined by “and” are separate entries in the source; they are usually repeats but may differ in a detail not shown here. Equal entries are not always repeated.

Tested on: 299254-011-R-J1-PDC complex spheroids viability
Experiment: Anticancer human tumor 299254-011-R-J1-PDC patient-derived melanoma cell line growth inhibition [GQUAD]
Settings: for viability, T/C: stronger effect = lower value
From the text: DNA G-quadruplex Stabilizer Agents in Combinations in Complex Spheroids
A high-throughput screen of multi-cell type tumor spheroids was designed to identify active combinations of DNA G-quadruplex stabilizer agents and targeted small molecules. Complex spheroids include a stromal component modeled by human endothelial cells (HUVEC) and fibroblasts modeled by human mesenchymal stem cells (MSCs). The concentration ranges selected for each drug and investigational agent were based upon clinically achievable concentrations if the clinical Cmax of the agent was known.
Compounds. The drugs and investigational agents: pidnarulex (CX-5461; NSC782164), APTO-253 (NSC789042), BRACO-19 (NSC847499), peposertib (NSC802822), ceralasertib (NSC780249), elimusertib (NSC800525), camonsertib (NSC841442), AZD-1390 (NSC803789), olaparib (NSC753686), talazoparib (NSC767125), ART-558 (NSC835418), sotorasib (NSC818433), MRTX-1133 (NSC836407), SN-38 (NSC673596), topotecan (NSC609699), etoposide (NSC141540), doxorubicin (NSC123127), gemcitabine (NSC613327), 5-fluorouracil (NSC19893), paclitaxel (NSC125973), vemurafenib (NSC761431), panobinostat (NSC761190), R-306465 (JNJ-16241199; NSC773264), adavosertib (NSC754352), TP-3654 (NSC805149), carboplatin (NSC241240), KSQ-4279 (NSC840948), and staurosporine (NSC755774) were obtained from the National Cancer Institute (NCI) Developmental Therapeutics Program Chemical Repository (34). The FDA-approved anticancer drug set is available from the NCI Developmental Therapeutics Program. […] The stock solutions were prepared in dimethyl sulfoxide (DMSO, Sigma-Aldrich, St. Louis, MO, cat. D2650) at 800-fold the tested concentration and stored at -70 degrees C prior to their use. All drugs and investigational agents were tested over a range starting from a high concentration at or near the clinical Cmax and decreasing in half-log increments. If the clinical Cmax for an agent had not been determined, the highest concentration tested was 10 microM.
2.3 Cell Culture. All cells were maintained in an incubator at 37 degrees C and 5% CO2 with 95% humidity. The PDC lines were cultured according to standard operating procedures established by the NCI PDMR. All PDCs were thawed and cultured in Matrigel-coated flasks prepared with a working solution of 1X Ham's F-12 nutrient mix, without supplementation (Invitrogen, cat. 11765054), 100 U/mL penicillin-streptomycin (Invitrogen, cat. 15140122), and 2.5% Matrigel (Corning Inc., cat. 354248) for the first three passages. The 857933-349-R-J2-PDC line was cultured in 6C/Colon 1B media, which includes advanced DMEM/F-12 (Thermo Fisher Scientific, cat. 12634028), 10 mM HEPES (Thermo Fisher Scientific, cat. 15630080), 1X GlutaMAX supplement (Thermo Fisher Scientific, cat. 35050061), 0.1 mg/mL primocin (InvivoGen, cat. ant-pm-2), 10% defined fetal bovine serum, heat inactivated (HyClone Laboratories Inc., cat. SH30070.03HI), 50% L-WRN conditioned media (ATCC, cat. CRL-3276), 1.25 mM N-Acetyl-L-cysteine (Sigma-Aldrich, cat. A9165), 10 mM nicotinamide (Sigma-Aldrich, cat. N0636), 1X B-27 supplement (Thermo Fisher Scientific, cat. 17504044), 1X N-2 supplement (Thermo Fisher Scientific, cat. 17502048), 10 microM Y-27632 dihydrochloride (Tocris Bioscience, cat. 1254), and 50 ng/mL human EGF recombinant protein (Thermo Fisher Scientific, cat. PHG0311). The 485176-168-R4-J1-PDC line was cultured in Panc media, which includes all 6C/Colon 1B media components plus 100 ng/mL human FGF-10 (Thermo Fisher Scientific, cat. 100-26), 500 nM SB-431542 (Selleckchem, cat. S1067), and gastrin (Tocris, cat. 3006).
[…]

[1] = curve of first compound, second compound 0.0316 µM
[2] = curve of first compound, second compound 0.1 µM
[3] = curve of first compound, second compound 0.316 µM
[4] = curve of first compound, second compound 1 µM
[5] = curve of first compound, second compound 3.16 µM
[6] = curve of first compound, second compound 10 µM
[7] = second compound 0.0316 µM, first compound 0.0316 µM
[8] = second compound 0.0316 µM, first compound 0.1 µM
[9] = second compound 0.0316 µM, first compound 0.316 µM
[10] = second compound 0.0316 µM, first compound 1 µM
[11] = second compound 0.0316 µM, first compound 3.16 µM
[12] = second compound 0.0316 µM, first compound 10 µM
[13] = second compound 0.1 µM, first compound 0.0316 µM
[14] = second compound 0.1 µM, first compound 0.1 µM
[15] = second compound 0.1 µM, first compound 0.316 µM
[16] = second compound 0.1 µM, first compound 1 µM
[17] = second compound 0.1 µM, first compound 3.16 µM
[18] = second compound 0.1 µM, first compound 10 µM
[19] = second compound 0.316 µM, first compound 0.0316 µM
[20] = second compound 0.316 µM, first compound 0.1 µM
[21] = second compound 0.316 µM, first compound 0.316 µM
[22] = second compound 0.316 µM, first compound 1 µM
[23] = second compound 0.316 µM, first compound 3.16 µM
[24] = second compound 0.316 µM, first compound 10 µM
[25] = second compound 1 µM, first compound 0.0316 µM
[26] = second compound 1 µM, first compound 0.1 µM
[27] = second compound 1 µM, first compound 0.316 µM
[28] = second compound 1 µM, first compound 1 µM
[29] = second compound 1 µM, first compound 3.16 µM
[30] = second compound 1 µM, first compound 10 µM
[31] = second compound 3.16 µM, first compound 0.0316 µM
[32] = second compound 3.16 µM, first compound 0.1 µM
[33] = second compound 3.16 µM, first compound 0.316 µM
[34] = second compound 3.16 µM, first compound 1 µM
[35] = second compound 3.16 µM, first compound 3.16 µM
[36] = second compound 3.16 µM, first compound 10 µM
[37] = second compound 10 µM, first compound 0.0316 µM
[38] = second compound 10 µM, first compound 0.1 µM
[39] = second compound 10 µM, first compound 0.316 µM
[40] = second compound 10 µM, first compound 1 µM
[41] = second compound 10 µM, first compound 3.16 µM
[42] = second compound 10 µM, first compound 10 µM
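Note: spheroids exposed to the agents for seven days before readout.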
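Throughout, for viability, T/C: percent viability relative to DMSO vehicle control wells = 100%.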

`Cc1cccc(N(C)C(=O)C2C(O)CCN2c2nc(C)cc(C(F)(F)F)c2C#N)c1` (stereo not drawn) + Cc1cnc(CNC(=O)c2c(=O)c3ccc(N4CCCN(C)CC4)nc3n3c2sc2ccccc23)cn1 was tested, and the IC50 [1] was > 10 µM, the IC50 [2] was > 10 µM and the IC50 [3] was > 10 µM. The IC50 [4] was > 10 µM, the IC50 [5] was > 10 µM and the IC50 [6] was > 10 µM. For the same compound, the viability, T/C [7] was 120%, the viability, T/C [8] was 115% and the viability, T/C [9] was 117%. The viability, T/C [10] was 89.3%, the viability, T/C [11] was 87.6% and the viability, T/C [12] was 112%. It also gave a viability, T/C [13] of 88.9%, a viability, T/C [14] of 112% and a viability, T/C [15] of 95.6%. The viability, T/C [16] was 92.9%, the viability, T/C [17] was 120% and the viability, T/C [18] was 100%. For the same compound, the viability, T/C [19] was 94.3%, the viability, T/C [20] was 96.5% and the viability, T/C [21] was 93.2%. The viability, T/C [22] was 93.8%, the viability, T/C [23] was 107% and the viability, T/C [24] was 114%. For the same compound, the viability, T/C [25] was 91.8%, the viability, T/C [26] was 94% and the viability, T/C [27] was 103%. The viability, T/C [28] was 85.9%, the viability, T/C [29] was 92.1% and the viability, T/C [30] was 83.5%. It also gave a viability, T/C [31] of 71.9%, a viability, T/C [32] of 75.2% and a viability, T/C [33] of 95.3%. It also gave a viability, T/C [34] of 85.8%, a viability, T/C [35] of 86.5% and a viability, T/C [36] of 85.5%. It also gave a viability, T/C [37] of 82%, a viability, T/C [38] of 71.9% and a viability, T/C [39] of 64.8%. The viability, T/C [40] was 84.4%, the viability, T/C [41] was 63.5% and the viability, T/C [42] was 52%.
For `COc1cccc2c1C(=O)c1c(O)c3c(c(O)c1C2=O)CC(O)(C(=O)CO)CC3OC1CC(N)C(O)C(C)O1` (stereo not drawn), the viability, T/C (compound 0.0316 µM) was 107% and 92.6% and 98%, the viability, T/C (compound 0.1 µM) was 99.6% and 107% and 89.3% and the viability, T/C (compound 0.316 µM) was 88.1% and 81.5% and 113%. The viability, T/C (compound 1 µM) was 75.9% and 86.5% and 81.4%, the viability, T/C (compound 3.16 µM) was 60.2% and 77% and 70.5% and the viability, T/C (compound 10 µM) was 21.2% and 28% and 20.3%. For the same compound, the IC50 (curve of compound) was 3.89 µM and 5.82 µM and 4.94 µM.
`CC1COCCN1c1cc(C2(O)CC3CCC(C2)O3)c2cnn(-c3ccn[nH]3)c2n1` (stereo not drawn) was tested, and the viability, T/C (compound 0.0316 µM) was 116% and 87.6% and 93.3%, the viability, T/C (compound 0.1 µM) was 42.7% and 48.7% and 67.2% and the viability, T/C (compound 0.316 µM) was 23.7% and 29.9% and 29.5%. The viability, T/C (compound 1 µM) was 12.7% and 12.4% and 18.8%, the viability, T/C (compound 3.16 µM) was 10.2% and 10.5% and 10.9% and the viability, T/C (compound 10 µM) was 4.19% and 8.01% and 5.02%. The IC50 (curve of compound) was 0.0926 µM and 0.0992 µM and 0.173 µM.
With `CC(C)n1c(=O)n(C)c2cnc3cc(F)c(-c4ccc(OCCCN5CCCCC5)nc4)cc3c21` + Cc1[nH]c2ccc(F)cc2c1-c1nc2c3cccnc3c3ncccc3c2[nH]1 the IC50 [1] was > 10 µM, the IC50 [2] was > 10 µM and the IC50 [3] was > 10 µM. For the same compound, the IC50 [4] was > 10 µM, the IC50 [5] was > 10 µM and the IC50 [6] was 9.86 µM. The viability, T/C [7] was 90.2%, the viability, T/C [8] was 94.3% and the viability, T/C [9] was 98.1%. It also gave a viability, T/C [10] of 75.2%, a viability, T/C [11] of 86.7% and a viability, T/C [12] of 54.3%. It also gave a viability, T/C [13] of 85.9%, a viability, T/C [14] of 103% and a viability, T/C [15] of 124%. It also gave a viability, T/C [16] of 96.5%, a viability, T/C [17] of 83.1% and a viability, T/C [18] of 58.3%. The viability, T/C [19] was 106%, the viability, T/C [20] was 98.8% and the viability, T/C [21] was 105%. The viability, T/C [22] was 94.2%, the viability, T/C [23] was 84.4% and the viability, T/C [24] was 52.4%. It also gave a viability, T/C [25] of 83%, a viability, T/C [26] of 97.7% and a viability, T/C [27] of 118%. The viability, T/C [28] was 115%, the viability, T/C [29] was 98.8% and the viability, T/C [30] was 58.1%. For the same compound, the viability, T/C [31] was 89.9%, the viability, T/C [32] was 107% and the viability, T/C [33] was 89.5%. The viability, T/C [34] was 111%, the viability, T/C [35] was 94.4% and the viability, T/C [36] was 56.9%. For the same compound, the viability, T/C [37] was 96.8%, the viability, T/C [38] was 107% and the viability, T/C [39] was 98%. For the same compound, the viability, T/C [40] was 84.8%, the viability, T/C [41] was 96.8% and the viability, T/C [42] was 49.5%.
